SMILES strings stand for the structures. Values joined by “and” are separate entries in the source; they are usually repeats but may differ in a detail not shown here. Equal entries are not always repeated. Toxic doses and inconclusive results are not listed.

This test concerns P388 leukemia ip, CD2F1 mice, survival T/C. As to the kind of experiment: NCI In Vivo Anticancer Drug Screen. Data for tumor model P388 Leukemia (intraperitoneal) in CD2F1 (CDF1) mice. Particulars: endpoint: median survival time, higher = longer survival. Summed up:
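Mice carrying the transplanted tumor received test compound or vehicle. Survival was recorded in each group, and the value is the treated-group measurement divided by that of the vehicle-treated control group.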

The mark [1] stands for this setting: dose: 60.0 mg/kg/injection, schedule: Q01DX005 (ip), vehicle: saline.
Where [2] appears, read: dose: 120.0 mg/kg/injection, schedule: Q01DX005 (ip), vehicle: saline.
Where [3] appears, read: dose: 240.0 mg/kg/injection, schedule: Q01DX005 (ip), vehicle: saline.
[4] abbreviates: dose: 60.0 mg/kg/injection, schedule: Q01DX005 (ip), vehicle: saline with Tween-80.
[5] abbreviates: dose: 120.0 mg/kg/injection, schedule: Q01DX005 (ip), vehicle: saline with Tween-80.
Setting [6] is: dose: 240.0 mg/kg/injection, schedule: Q01DX005 (ip), vehicle: saline with Tween-80.
The mark [7] stands for this setting: dose: 50.0 mg/kg/injection, schedule: Q01DX005 (ip), vehicle: saline with Tween-80.
The mark [8] stands for this setting: dose: 100.0 mg/kg/injection, schedule: Q01DX005 (ip), vehicle: saline with Tween-80.
Setting [9] is: dose: 200.0 mg/kg/injection, schedule: Q01DX005 (ip), vehicle: saline with Tween-80.
Where [10] appears, read: dose: 12.5 mg/kg/injection, schedule: Q01DX005 (ip), vehicle: Klucel (hydroxypropylcellulose) (HPC).
Setting [11] is: dose: 1.56 mg/kg/injection, schedule: Q01DX009 (ip), vehicle: saline with Tween-80.
[12] abbreviates: dose: 3.12 mg/kg/injection, schedule: Q01DX009 (ip), vehicle: saline with Tween-80.
[13] abbreviates: dose: 6.25 mg/kg/injection, schedule: Q01DX009 (ip), vehicle: saline with Tween-80.
The mark [14] stands for this setting: dose: 12.5 mg/kg/injection, schedule: Q01DX009 (ip), vehicle: saline with Tween-80.
The mark [15] stands for this setting: dose: 50.0 mg/kg/injection, schedule: Q01DX009 (ip), vehicle: saline with Tween-80.
The mark [16] stands for this setting: dose: 100.0 mg/kg/injection, schedule: Q01DX009 (ip), vehicle: saline with Tween-80.
[17] abbreviates: dose: 50.0 mg/kg/injection, schedule: Q01DX009 (ip), vehicle: Klucel (hydroxypropylcellulose) (HPC).
[18] abbreviates: dose: 100.0 mg/kg/injection, schedule: Q01DX009 (ip), vehicle: Klucel (hydroxypropylcellulose) (HPC).
Setting [19] is: dose: 200.0 mg/kg/injection, schedule: Q01DX009 (ip), vehicle: Klucel (hydroxypropylcellulose) (HPC).

With `N#CC(C#N)=C(O)/C(=C/c1ccc([N+](=O)[O-])cc1)NC(=O)c1ccccc1`, the T/C is 95 % of control under setting [1], 100 % of control under setting [2] and 95 % of control under setting [3].

`CC1(C)OC2OC3COP(=O)(c4ccccc4)C3(CC#N)C2O1` (stereo unspecified): the T/C was 94 % of control under setting [4], 99 % of control under setting [5] and 98 % of control under setting [6].

Take `NC(Cc1ccc(O)c(N=Nc2ccc([N+](=O)[O-])cc2)c1)C(=O)O` (stereo unspecified): the T/C (dose: 100.0 mg/kg/injection, schedule: Q01DX001 (ip), vehicle: saline) was 103 % of control; the T/C (dose: 200.0 mg/kg/injection, schedule: Q01DX001 (ip), vehicle: saline) is 100 % of control; the T/C (dose: 400.0 mg/kg/injection, schedule: Q01DX001 (ip), vehicle: saline) is 100 % of control.

For `COC(=O)c1c(C(=O)OC)c2c(C)nn3ccc1n23`, the T/C runs as follows: (dose: 25.0 mg/kg/injection, schedule: Q01DX005 (ip), vehicle: saline with Tween-80) 96 % of control; under setting [7], 96 % of control; under setting [8], 98 % of control; under setting [9], 93 % of control.

As for `O=CN1CCCC1Cc1ccccc1` (stereo unspecified), the T/C by setting is: (dose: 50.0 mg/kg/injection, schedule: Q01DX001 (ip), vehicle: Klucel (hydroxypropylcellulose) (HPC)) 101 % of control; (dose: 100.0 mg/kg/injection, schedule: Q01DX001 (ip), vehicle: Klucel (hydroxypropylcellulose) (HPC)) 96 % of control.

For the compound `O=C1c2ccccc2CCC1[n+]1ccc2ccccc2c1` (stereo unspecified), the T/C under setting [10] was 102 % of control; the T/C (dose: 25.0 mg/kg/injection, schedule: Q01DX005 (ip), vehicle: Klucel (hydroxypropylcellulose) (HPC)) was 104 % of control; the T/C (dose: 50.0 mg/kg/injection, schedule: Q01DX005 (ip), vehicle: Klucel (hydroxypropylcellulose) (HPC)) is 106 % of control and 111 % of control.

On to `CCCCCCCCCCCC(=O)OCCN1CCN(CCCN2c3ccccc3Sc3ccc(C(F)(F)F)cc32)CC1`, for which the T/C reads like this: (dose: 0.78 mg/kg/injection, schedule: Q01DX009 (ip), vehicle: saline with Tween-80) 108 % of control; under setting [11], 104 % of control; under setting [12], 105 % of control and 93 % of control; under setting [13], 107 % of control; under setting [14], 101 % of control and 107 % of control; (dose: 25.0 mg/kg/injection, schedule: Q01DX009 (ip), vehicle: saline with Tween-80) 106 % of control. Further, the T/C by setting is: under setting [15], 114 % of control; under setting [16], 97 % of control.

On to `COC(C)C(NC=O)C(=O)O` (stereo unspecified), for which the T/C by setting is: (dose: 50.0 mg/kg/injection, schedule: Q01DX005 (ip), vehicle: saline) 100 % of control and 99 % of control; (dose: 100.0 mg/kg/injection, schedule: Q01DX005 (ip), vehicle: saline) 96 % of control and 98 % of control; (dose: 200.0 mg/kg/injection, schedule: Q01DX005 (ip), vehicle: saline) 100 % of control and 91 % of control.

On to `C=CCc1ccc(C(=O)OCCCCCCCCCC)c(OC)c1`, for which the T/C is 103 % of control under setting [17], 105 % of control under setting [18] and 105 % of control under setting [19].

Consider `Cc1ccc(Br)c(C(O)(C(F)(F)F)C(F)(F)F)c1`, for which the T/C (dose: 100.0 mg/kg/injection, schedule: Q01DX001 (ip), vehicle: other) was 103 % of control and 104 % of control; the T/C (dose: 200.0 mg/kg/injection, schedule: Q01DX001 (ip), vehicle: other) is 101 % of control; the T/C (dose: 400.0 mg/kg/injection, schedule: Q01DX001 (ip), vehicle: other) was 111 % of control and 108 % of control.

On to `OCCN(CCO)CCCCCCN(CCO)CCO`, for which the T/C is, setting by setting: (dose: 25.0 mg/kg/injection, schedule: Q01DX009 (ip), vehicle: saline) 98 % of control; (dose: 50.0 mg/kg/injection, schedule: Q01DX009 (ip), vehicle: saline) 104 % of control; (dose: 100.0 mg/kg/injection, schedule: Q01DX009 (ip), vehicle: saline) 107 % of control; (dose: 200.0 mg/kg/injection, schedule: Q01DX009 (ip), vehicle: saline) 113 % of control.

As to `C/C(O)=C(/N=Nc1ccccc1)C(=O)O`, the T/C is 110 % of control under setting [4] and 98 % of control under setting [5].

Take `NS(=O)(=O)c1ccc(NCc2cnc3ccccc3n2)cc1`: the T/C is, setting by setting: (dose: 5.0 mg/kg/injection, schedule: Q01DX009 (ip), vehicle: saline) 87 % of control; (dose: 10.0 mg/kg/injection, schedule: Q01DX009 (ip), vehicle: saline) 94 % of control; (dose: 20.0 mg/kg/injection, schedule: Q01DX009 (ip), vehicle: saline) 94 % of control.

`CNc1ncn(-c2c(C)cccc2C)c(=O)n1`: the T/C was 101 % of control and 106 % of control under setting [4]; 108 % of control under setting [5]; 117 % of control under setting [6].

In the case of `O=C(/C=C/c1ccc([N+](=O)[O-])cc1)NN=C(c1ccccc1)c1ccccc1`, the T/C is 106 % of control and 96 % of control under setting [15]; 99 % of control and 91 % of control under setting [16]; 98 % of control (dose: 200.0 mg/kg/injection, schedule: Q01DX009 (ip), vehicle: saline with Tween-80); 99 % of control (dose: 400.0 mg/kg/injection, schedule: Q01DX009 (ip), vehicle: saline with Tween-80).

For `[Cl][Hg][CH]1CCC2OC1CC[CH]2[Hg][Cl]` (stereo unspecified), the T/C under setting [11] is 112 % of control; the T/C under setting [12] was 105 % of control and 118 % of control; the T/C under setting [13] was 121 % of control and 91 % of control; the T/C under setting [14] is 94 % of control.

In the case of `O=C(NCCCCCCCCNC(=O)C12CC3CC(CC(C3)C1)C2)C12CC3CC(CC(C3)C1)C2`, the T/C was 86 % of control under setting [7], 86 % of control under setting [8] and 96 % of control under setting [9].

For the compound `C[N+](C)(C)N=P(O)(N[N+](C)(C)C)Oc1ccccc1` (stereo unspecified), the T/C reads like this: under setting [1], 95 % of control; under setting [2], 100 % of control; under setting [3], 95 % of control.

With `C1CSCCCSCCCSCCCSC1`, the T/C runs as follows: under setting [17], 100 % of control; under setting [18], 99 % of control; under setting [19], 100 % of control.

As for `NNc1c(C(N)=O)c2c(N)ncnc2n1C1OC(CO)C(O)C1O` (stereo unspecified), the T/C was 157 % of control (dose: 3.12 mg/kg/injection, schedule: Q01DX005 (ip), vehicle: Klucel (hydroxypropylcellulose) (HPC)); 166 % of control (dose: 6.25 mg/kg/injection, schedule: Q01DX005 (ip), vehicle: Klucel (hydroxypropylcellulose) (HPC)); 157 % of control under setting [10]; 115 % of control (dose: 50.0 mg/kg/injection, schedule: Q04DX003 (ip), vehicle: Klucel (hydroxypropylcellulose) (HPC)); 115 % of control (dose: 100.0 mg/kg/injection, schedule: Q04DX003 (ip), vehicle: Klucel (hydroxypropylcellulose) (HPC)); 120 % of control (dose: 100.0 mg/kg/injection, schedule: Q04DX003 (ip), vehicle: water). In addition, the T/C (dose: 200.0 mg/kg/injection, schedule: Q04DX003 (ip), vehicle: water) was 86 % of control.

With `COc1cc(C=Nc2ccc(C(=O)O)cc2)ccc1N(CCCl)CCCl`, the T/C (dose: 37.5 mg/kg/injection, schedule: Q04DX003 (ip), vehicle: saline with Tween-80) was 155 % of control and the T/C (dose: 50.0 mg/kg/injection, schedule: Q04DX003 (ip), vehicle: saline with Tween-80) was 90 % of control.

On to `COc1cc(NC(C)=O)c(OC)c2c(Cl)ccnc12`, for which the T/C was 101 % of control (dose: 100.0 mg/kg/injection, schedule: Q01DX001 (ip), vehicle: acid diluted with saline) and 99 % of control (dose: 200.0 mg/kg/injection, schedule: Q01DX001 (ip), vehicle: acid diluted with saline).

On to `COc1ccc2c(c1)CCC1C2CCC2(C)C1CCC2(O)CCN` (stereo unspecified), for which the T/C is 100 % of control (dose: 25.0 mg/kg/injection, schedule: Q04DX002 (ip), vehicle: saline); 101 % of control (dose: 50.0 mg/kg/injection, schedule: Q04DX002 (ip), vehicle: saline); 104 % of control (dose: 100.0 mg/kg/injection, schedule: Q04DX002 (ip), vehicle: saline).

Regarding `CCC(c1ccccc1)c1noc(CCN(CC)CC)n1` (stereo unspecified), the T/C runs as follows: under setting [17], 101 % of control; under setting [18], 99 % of control; under setting [19], 113 % of control.
